Experimental data from paper PMC7816196, “Antitubercular 2-Pyrazolylpyrimidinones: Structure–Activity Relationship and Mode-of-Action Studies” (Journal of Medicinal Chemistry, 2021).
In brackets after ≈: the same amount, converted by molar mass. Read-outs that look alike come from different tables or passages of the source.

Key:
Mtb H37Rv = test: MIC against Mtb H37Rv, Alamar Blue broth microdilution; format: cell-based, Mycobacterium tuberculosis
mmpL3-TetON = test: microbe, parasite or virus in culture; format: cell-based, M. tuberculosis; conditions: for MIC50 / MIC: Mycobacterium tuberculosis
Rv3247c hypomorph = test: MIC against thymidylate kinase hypomorph; format: cell-based, Mycobacterium tuberculosis
From the text: Based on the structural similarity of the compounds with the published thymidylate kinase inhibitors,[39],[40] we asked whether this compound series can inhibit Mtb thymidylate kinase, which is an essential target encoded by Rv3247c. To investigate this, we tested the activity of the compounds 1, 2, and 12 against the Rv3247c hypomorph.

[1] = Kinetic aqueous solubility at pH 7.4; format: physicochemical; conditions: read-out: Solubility
Procedure: 3) In vitro ADME - assays
The kinetic solubility assay was p erfo rmed using a miniaturised shake flask method. 10 mM stock solutions of each of the test compounds were used to prepare calibration standards (10-220 µM) in DMSO. The same 10 mM stock soluti ons were accurately dispensed in duplicat e into 96-well plates and the DMSO dried down (MiVac GeneVac, 90 min, 37 °C). Thereafter, the samples were reconstituted (200 µM) in phosphate buffered saline (pH 7. 4) and shaken (20 hours,25 °C). The solutions were centrifuged, and the supernatant was an alysed by means of HPLC-DAD (Agilent 1200 Rapid Resolution HPLC with a diode array detector). Best fit calibration curves were constructed using the calibration standards, which were used to determine the aqueous samples’ solubility.4
The metabolic stability assay was performed in dup licate in a 96-well micro t itre plate. The test compounds (0.1 µM) were incubated individually in mouse, rat and pooled human liver microsomes (final protei n concentration of 0.4 m g/mL; XenoTech, Lenexa, KS), suspended in 0.1M phosphate buffer (pH 7.4) for predetermined time points, in the presence and abs ence of the cofactor NADPH (1 mM). Reactions were quenched by adding 300 µL of ice cold acetonitrile containing internal standard (carbamazepine, 0.0236 µg/mL). The samples were centrifuged and test in the supernatant were an alysed by means of LC-MS/MS ((Agilent Rapid Resolution HPLC, AB SCIEX 4500 MS). The rel ative loss of parent compound over time w as monitored and plots (concentration vs. time) were prepared per compound to determine the first order rate constant for compound depletion. This was in turn used to calculate h alf-life, in vitro intrinsic clearance and in vivo hepatic extraction ratio. Metabolite search es were not conducted during the met abolic stability assay.5

H37Rv = test: microbe, parasite or virus in culture; format: cell-based; conditions: Mycobacterium tuberculosis, 336 h, 7H9 medium, day 14
SAWC1125 = test: microbe, parasite or virus in culture; format: cell-based; conditions: Mycobacterium tuberculosis, 336 h; typical Beijing; day 14
SAWC2371 = test: microbe, parasite or virus in culture; format: cell-based; conditions: Mycobacterium tuberculosis, 336 h; Haarlem; day 14
SAWC3200 = test: microbe, parasite or virus in culture; format: cell-based; conditions: Mycobacterium tuberculosis, 336 h; X1; day 14
SAWC3385 = format: cell-based; conditions: Cas 1/Delhi
SAWC4046 = format: cell-based; conditions: Haarlem-like
SAWC3388 = format: cell-based; conditions: T1, Tuscany, T5/Rus
SAWC3906 = format: cell-based; conditions: atypic Beijing
WT H37Rv = test: microbe, parasite or virus in culture; format: cell-based, M. tuberculosis; conditions: Mycobacterium tuberculosis
[2] = test system: panel of 21 liability targets; conditions: 10 μM test concentration
in vivo = conditions: male, C57/BL6, mouse
[3] = Mouse pharmacokinetics, i.v. and oral; conditions: for tolerability: mouse, i.v. 2 mg/kg or oral 20 mg/kg
Mtb [4] = test: microbe, parasite or virus in culture; format: cell-based, Mycobacterium tuberculosis
Mtb [5] = test: Checkerboard (2D) MIC assay with Fe2+ in GAST media; format: cell-based, Mycobacterium tuberculosis; conditions: GAST medium, 100/200 μM Fe2+
[6] = mouse blood samples from the PK studies
SAWC3933 = format: cell-based; conditions: T1
CHO cell-line = test: Cytotoxicity, MTT assay, CHO cells; conditions: read-out: Cytotoxicity (CHO IC50)
[7] = Mycobacterium tuberculosis, H37RV, antitubercular activity of the initial hits, medium not stated
[8] = male, C57/BL6, mouse, whole blood, iv, 2 mg/kg
[9] = Mycobacterium tuberculosis, H37RV, supplement csv, medium not stated
[10] = male, C57/BL6, mouse, whole blood, po, 20 mg/kg

Row | Compound | change in MIC on transcriptional silencing of mmpL3 (mmpL3-TetON) | MIC modulation upon silencing of Rv3247c (Rv3247c hypomorph) | MIC99 (H37Rv) [µM] | MIC99 (SAWC1125) [µM] | MIC99 (SAWC2371) [µM] | MIC99 (SAWC3200) [µM] | MIC99 day 14, SAWC3385 (SAWC3385) [µM] | MIC99 day 14, SAWC4046 (SAWC4046) [µM] | MIC99 day 14, SAWC3388 (SAWC3388) [µM] | MIC99 day 14, SAWC3906 (SAWC3906) [µM] | MIC50 (WT H37Rv; experiment: Follow-Up) [µM] | MIC50 (WT H37Rv; experiment: Initial) [µM] | MIC50 (mmpL3-TetON; experiment: Follow-Up) [µM] | MIC (mmpL3-TetON; experiment: Initial) [µM] | MIC50 (mmpL3-TetON; experiment: Initial) [µM] | MIC99 day 14, SAWC3933 (SAWC3933) [µM] | also measured
1 | Cc1ccc(Nc2cc(C)nn2-c2nc(C)cc(O)n2)cc1 [Compound 2, 6-Methyl-2-(3-methyl-5-(p-tolylamino)-1H-pyrazol-1-yl)pyrimidin-4(3H)-one] | no significant change | did not observe any MIC modulation |  |  |  |  |  |  |  |  |  |  |  |  |  |  | MIC (Mtb H37Rv; [7]): < 2 µM
2 | Cc1cc(C)n(-c2nc(C(F)(F)F)cc(=O)[nH]2)n1 [Compound 12, 2-(3,5-Dimethyl-1H-pyrazol-1-yl)-6-(trifluoromethyl)pyrimidin-4(3H)-one] | no significant change | did not observe any MIC modulation | 2 (≈ 0.516 µg/mL) | 8 to 16 (≈ 2.07 to 4.13 µg/mL) | 2 (≈ 0.516 µg/mL) | 1 (≈ 0.258 µg/mL) | 1 (≈ 0.258 µg/mL) | 1 (≈ 0.258 µg/mL) | 2 to 4 | 2 (≈ 0.516 µg/mL) | 8.3 (≈ 2.14 µg/mL) | 4.5 (≈ 1.16 µg/mL) | 8.9 (≈ 2.3 µg/mL) | 6.2 (≈ 1.6 µg/mL) | 4.8 (≈ 1.24 µg/mL) |  | loss in activity (Mtb H37Rv; CH3 or CF3 at R1 instead of phenyl): 10–15 fold; solubility at 20 h ([1]; phosphate buffered saline, pH 7.4, aqueous (kinetic) solubility at pH 7.4): ≥ 200 µM; MIC (WT H37Rv; experiment: Initial): 5.4 µM (≈ 1.39 µg/mL); inhibition or activation of the enzyme/receptors [2]: no significant inhibition or activation; half-life at 24 h (in vivo; iv, 2 mg/kg): 186 min; half-life at 24 h (in vivo; po, 20 mg/kg): 240 min; AUC(0-inf) at 24 h [3, 8]: 48.8 µM·h; clearance at 24 h [3, 8]: 2.7 mL/min/kg; bioavailability ([3]; male, C57/BL6, mouse, whole blood, oral, 20 mg/kg): ~40%; tolerability [3]: well tolerated
3 | Cc1cc(Nc2ccccn2)n(-c2nc(C(F)(F)F)cc(=O)[nH]2)n1 [Compound 45, 2-(3-Methyl-5-(pyridin-2-ylamino)-1H-pyrazol-1-yl)-6-(trifluoromethyl)pyrimidin-4(3H)-one] |  |  |  |  |  |  |  |  |  |  |  |  |  |  |  |  | MIC (Mtb H37Rv; Mycobacterium tuberculosis, H37RV, 168 h): ≤ 1 µM; Fold-change of MIC (Mtb [4]; 200 µM Ferric ammonium citrate): 2-4 fold; MIC (Mtb [4]; Mycobacterium tuberculosis, […], supplement: None): 0.39 µM (≈ 0.131 µg/mL); increase in MIC (Mtb [5]): ≥ 32 fold
4 | CCNc1cc(C)nn1-c1nc(-c2cccnc2)cc(=O)[nH]1 [Compound 47, 2-(5-(Ethylamino)-3-methyl-1H-pyrazol-1-yl)-6-(pyridin-3-yl)pyrimidin-4(3H)-one] | no significant change |  |  |  |  |  |  |  |  |  | 3.5 (≈ 1.04 µg/mL) | 2.5 (≈ 0.741 µg/mL) | 3.2 (≈ 0.948 µg/mL) | 2.4 (≈ 0.711 µg/mL) | 2.1 (≈ 0.622 µg/mL) |  | MIC (Mtb H37Rv; [9]): 6 µM (≈ 1.78 µg/mL); MIC (mmpL3-TetON; experiment: Follow-Up): 4.4 µM (≈ 1.3 µg/mL); major metabolite [6]: glucuronide; half-life (in vivo; iv, 2 mg/kg): 336 min; half-life (in vivo; po, 20 mg/kg): 264 min; AUC(0-inf) [3, 8]: 1.52 µM·h; CLint scaled [3, 8]: > 4000 mL/min/kg; Cmax [3, 8]: 2400 nM; Vd [3, 8]: 37.4 L/kg; AUC(0-inf) [3, 10]: 5.22 µM·h; Cmax [3, 10]: 2900 nM; Tmax [3, 10]: 30 min; bioavailability [3, 10]: 33%; tolerability [3]: well tolerated
5 | Cc1cc(C)n(-c2nc(-c3ccncc3)cc(=O)[nH]2)n1 [Compound 20, 2-(3,5-Dimethyl-1H-pyrazol-1-yl)-6-(pyridin-4-yl)pyrimidin-4(3H)-one] |  |  | 4 to 8 (≈ 1.07 to 2.14 µg/mL) | 32 (≈ 8.55 µg/mL) | 2 to 4 (≈ 0.535 to 1.07 µg/mL) | 1 to 2 (≈ 0.267 to 0.535 µg/mL) | 2 to 4 | 2 to 4 | 4 to 8 | 2 (≈ 0.535 µg/mL) |  |  |  |  |  | 16 (≈ 4.28 µg/mL) | 
6 | Cc1cc(C)n(-c2nc(O)cc(-c3ccccc3)n2)n1 [Compound 1, 2-(3,5-Dimethyl-1H-pyrazol-1-yl)-6-phenylpyrimidin-4(3H)-one] | no significant change | did not observe any MIC modulation | 1 to 2 (≈ 0.266 to 0.533 µg/mL) | 8 (≈ 2.13 µg/mL) | 0.25 to 0.5 (≈ 0.0666 to 0.133 µg/mL) | 0.25 (≈ 0.0666 µg/mL) | 0.25 to 0.5 | 0.25 to 0.5 | 0.25 to 0.5 | 0.25 (≈ 0.0666 µg/mL) | 0.49 (≈ 0.13 µg/mL) | 0.26 (≈ 0.0692 µg/mL) | 0.42 (≈ 0.112 µg/mL) | 0.7 (≈ 0.186 µg/mL) | 0.29 (≈ 0.0772 µg/mL) | 2 to 4 | MIC (Mtb H37Rv; [7]): < 2 µM; MIC (Mtb H37Rv; [9]): 1 µM (≈ 0.266 µg/mL); MIC (WT H37Rv; experiment: Follow-Up): 0.78 µM (≈ 0.208 µg/mL); MIC (mmpL3-TetON; experiment: Follow-Up): 0.57 µM (≈ 0.152 µg/mL); inhibition or activation of the enzyme/receptors [2]: no significant inhibition or activation
7 | 6-(3,5-Dimethyl-1H-pyrazol-1-yl)-4-phenylpyridin-2(1H)-one [Compound 5] |  |  |  |  |  |  |  |  |  |  |  |  |  |  |  |  | MIC (Mtb H37Rv): >50 µM; MIC (Mtb H37Rv; supplement csv, medium not stated): >50 µM; solubility at 20 h ([1]; aqueous (kinetic) solubility at pH 7.4): 185 µM; IC50 (CHO cell-line): > 50 µM
8 | CC(=O)Nc1cc(C)nn1-c1nc(-c2ccccc2)cc(=O)[nH]1 [Compound 15, N-(3-Methyl-1-(4-oxo-6-phenyl-1,4-dihydropyrimidin-2-yl)-1H-pyrazol-5-yl)acetamide] | no significant change |  | 4 to 8 (≈ 1.24 to 2.47 µg/mL) | 8 to 16 (≈ 2.47 to 4.95 µg/mL) |  | 1 (≈ 0.309 µg/mL) | 2 (≈ 0.619 µg/mL) |  |  | 2 (≈ 0.619 µg/mL) |  |  |  |  |  | 8 (≈ 2.47 µg/mL) | 
